# Laboratory results reported in patent US20230073777A1, “CYCLIC-AMP RESPONSE ELEMENT BINDING PROTEIN (CBP) AND/OR ADENOVIRAL E1A BINDING PROTEIN OF 300 KDA (P300) DEGRADATION COMPOUNDS AND METHODS OF USE” (CULLGEN (SHANGHAI), INC., priority 2019, published 2023).
# “Also recorded” adds a separate entry of the source.
# Assays:
# NOMO-1 = assay: Cell viability assay, NOMO-1; format: cell-based; conditions: Homo sapiens, NOMO-1, Acute monocytic leukemia
# Procedure: (§1) Cells were seeded at a density of 5000 cells per well in 96-well assay plates and treated with test compounds following a 12-point 3-fold serial dilution. Three days later, cell viability was determined using the CellTiter-Glo assay kit according to the manufacturer's instructions. The dose-response curves were determined and IC50 values were calculated using the GraphPad Prism software following a nonlinear regression (least squares fit) method.
# (§2) The IC50 value of each compound was determined as described in FIG. 4 and calculated using the GraphPad Prism 5.0 software.
# SU-DHL-1 = assay: Cell viability assay, SU-DHL-1; format: cell-based; conditions: Homo sapiens, SU-DHL-1, Diffuse large B-cell lymphoma
# Procedure: as §1, §2
# LNCaP cells = assay: LNCaP cell viability assay (CellTiter-Glo); format: cell-based; conditions: Homo sapiens
# Method in brief: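 LNCaP cells, 5000/well, exposed to compounds in 12-point 3-fold serial dilution (top 10 μM) for 3 days. Viability by CellTiter-Glo luminescence, normalized to untreated cells; IC50 by least-squares nonlinear regression.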
# 22Rv1 = assay: Cell viability assay, 22Rv1; format: cell-based; conditions: Homo sapiens, 22Rv1, Prostate carcinoma
# Procedure: as §1, §2
# CBP = molecular target: T1, CBP (Homo sapiens, UniProt Q92793); assay: Pharmacodynamic study, CBP in 22RV1 subcutaneous xenograft tumors; format: in vivo, Athymic nude mice; conditions: single dose 40 mg/kg, i.p. or p.o., six hours after administration (FIG. 9)
# T1 construct: from tissue; host or cells: 22RV1 subcutaneous xenograft tumours in athymic nude mice
# T1 sequence (Q92793 whole entry): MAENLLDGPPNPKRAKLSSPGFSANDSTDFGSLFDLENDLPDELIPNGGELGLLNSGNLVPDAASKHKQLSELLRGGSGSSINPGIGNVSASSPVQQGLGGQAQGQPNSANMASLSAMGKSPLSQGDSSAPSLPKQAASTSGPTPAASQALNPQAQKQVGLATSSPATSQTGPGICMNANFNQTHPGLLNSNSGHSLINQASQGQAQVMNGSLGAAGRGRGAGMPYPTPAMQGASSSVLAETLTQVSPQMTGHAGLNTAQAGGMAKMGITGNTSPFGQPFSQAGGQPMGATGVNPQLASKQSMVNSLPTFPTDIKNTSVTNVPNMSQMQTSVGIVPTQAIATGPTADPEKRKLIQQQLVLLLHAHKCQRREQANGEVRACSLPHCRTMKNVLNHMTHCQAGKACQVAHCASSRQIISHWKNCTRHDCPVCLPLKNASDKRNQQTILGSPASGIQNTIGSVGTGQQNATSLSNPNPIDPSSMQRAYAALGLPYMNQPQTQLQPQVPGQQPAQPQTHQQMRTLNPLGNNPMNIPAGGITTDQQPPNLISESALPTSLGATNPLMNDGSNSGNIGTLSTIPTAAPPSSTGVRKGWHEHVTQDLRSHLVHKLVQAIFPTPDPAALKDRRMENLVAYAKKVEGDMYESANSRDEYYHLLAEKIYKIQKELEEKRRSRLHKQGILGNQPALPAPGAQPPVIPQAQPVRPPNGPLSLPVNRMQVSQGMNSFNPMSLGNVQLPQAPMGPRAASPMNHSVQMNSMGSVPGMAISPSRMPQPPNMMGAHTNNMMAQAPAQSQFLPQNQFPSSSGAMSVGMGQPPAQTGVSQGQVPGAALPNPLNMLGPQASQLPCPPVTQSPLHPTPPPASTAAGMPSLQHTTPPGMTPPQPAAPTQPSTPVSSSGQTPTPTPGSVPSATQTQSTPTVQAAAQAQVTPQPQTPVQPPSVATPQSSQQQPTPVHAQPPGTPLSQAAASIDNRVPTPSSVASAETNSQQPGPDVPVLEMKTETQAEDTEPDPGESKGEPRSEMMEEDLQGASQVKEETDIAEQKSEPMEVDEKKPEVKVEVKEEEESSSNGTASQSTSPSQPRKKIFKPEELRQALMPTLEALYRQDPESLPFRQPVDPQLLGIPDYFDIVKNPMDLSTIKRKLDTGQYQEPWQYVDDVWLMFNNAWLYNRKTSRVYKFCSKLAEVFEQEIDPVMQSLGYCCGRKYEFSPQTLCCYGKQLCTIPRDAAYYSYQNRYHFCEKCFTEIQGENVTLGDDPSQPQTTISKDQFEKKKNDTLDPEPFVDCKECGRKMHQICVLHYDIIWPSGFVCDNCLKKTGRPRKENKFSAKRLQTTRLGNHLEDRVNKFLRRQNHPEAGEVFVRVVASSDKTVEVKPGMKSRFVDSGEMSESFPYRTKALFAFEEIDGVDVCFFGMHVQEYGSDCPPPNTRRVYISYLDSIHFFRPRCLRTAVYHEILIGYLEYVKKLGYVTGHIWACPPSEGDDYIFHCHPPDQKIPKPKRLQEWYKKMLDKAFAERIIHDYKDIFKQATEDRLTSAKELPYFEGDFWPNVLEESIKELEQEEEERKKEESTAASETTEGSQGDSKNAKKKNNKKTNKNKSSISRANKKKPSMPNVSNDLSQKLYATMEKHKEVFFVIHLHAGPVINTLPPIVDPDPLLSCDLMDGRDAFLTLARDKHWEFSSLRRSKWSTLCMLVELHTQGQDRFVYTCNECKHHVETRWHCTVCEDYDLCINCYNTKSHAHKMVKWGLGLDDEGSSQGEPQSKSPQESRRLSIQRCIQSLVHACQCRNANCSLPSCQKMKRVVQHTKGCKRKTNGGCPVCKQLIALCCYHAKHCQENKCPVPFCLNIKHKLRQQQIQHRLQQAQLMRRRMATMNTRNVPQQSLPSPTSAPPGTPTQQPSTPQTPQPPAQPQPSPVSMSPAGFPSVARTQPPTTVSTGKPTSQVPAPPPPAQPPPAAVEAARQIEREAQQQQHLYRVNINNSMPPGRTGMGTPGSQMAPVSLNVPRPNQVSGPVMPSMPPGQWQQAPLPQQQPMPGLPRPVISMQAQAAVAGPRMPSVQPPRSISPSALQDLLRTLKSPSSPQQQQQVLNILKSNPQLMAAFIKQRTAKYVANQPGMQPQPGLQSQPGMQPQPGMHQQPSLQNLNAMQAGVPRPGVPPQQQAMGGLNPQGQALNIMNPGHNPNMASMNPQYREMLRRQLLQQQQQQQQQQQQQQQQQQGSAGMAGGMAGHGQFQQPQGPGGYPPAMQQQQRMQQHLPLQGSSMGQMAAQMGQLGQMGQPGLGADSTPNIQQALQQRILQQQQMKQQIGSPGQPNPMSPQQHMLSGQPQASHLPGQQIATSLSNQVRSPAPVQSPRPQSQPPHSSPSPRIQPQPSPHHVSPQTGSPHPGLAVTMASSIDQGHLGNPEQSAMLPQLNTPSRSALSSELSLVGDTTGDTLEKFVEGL
# Procedure: In addition to cultured cells, athymic nude mice bearing 22RV1 subcutaneous xenograft tumors at the right flank were intraperitoneally or orally treated with 40 mg/kg bivalent compounds. Six hours after drug administration, animals were sacrificed for immunoblotting of P300 and CBP in homogenized xenograft tumor masses. […] Moreover, ICR mice were orally treated with 40 mg/kg bivalent compounds. Six hours after drug administration, animals were sacrificed for immunoblotting of CBP in homogenized lung tissues.
# Athymic nude mice bearing 22RV1 subcutaneous xenograft tumors at the right flank were intraperitoneally or orally treated with selected bivalent compounds at 40 mg/kg. Six hours after drug administration, animals were sacrificed, and xenograft tumors were collected for immunoblotting of P300 and CBP.
# All animal experiments were performed under protocols approved by the Institutional Animal Care and Use Committee (IACUC) of Cullgen. Athymic nude mice (male, 5-weeks old) received 5 million 22RV1 cells subcutaneously inoculated at the right flank site. Twenty days following inoculation, tumors were approximately 500 mm^3 in size. Tumor-bearing mice were treated intraperitoneally or via oral gavage with vehicle or bivalent compounds at indicated doses. 6 hours after drug administration, animals were sacrificed, tumors were resected. Small chunks of tumors were homogenized for immunoblotting of P300/CBP and other proteins as indicated. Alternatively, ICR mice (male, 5-weeks old) were treated via oral gavage with vehicle or bivalent compounds at indicated doses. 6 hours after drug administration, animals were sacrificed, lung tissues were resected. Small chunks of lung tissues were homogenized for immunoblotting of CBP and other proteins as indicated.
# Kasumi-1 = assay: Cell viability assay, Kasumi-1; format: cell-based; conditions: Homo sapiens, Kasumi-1, Acute myeloid leukemia
# Procedure: as §1, §2
# NCI-H1703 = assay: Cell viability assay, NCI-H1703; format: cell-based; conditions: Homo sapiens, NCI-H1703, Non-small cell lung cancer
# Procedure: as §1, §2
# MV4; 11 = assay: Cell viability assay, MV4; 11; format: cell-based; conditions: Homo sapiens, 11, Acute monocytic leukemia
# Procedure: as §1, §2
# VCaP = assay: Cell viability assay, VCaP; format: cell-based; conditions: Homo sapiens, Prostate carcinoma
# Procedure: as §1, §2
# P300/CBP = assay: Immunoblotting of P300/CBP protein levels in LNCaP or 22RV1 cells; format: cell-based; conditions: LNCaP cells, 10 nM single dose (FIG. 8)
# Procedure: Specific exemplary bivalent compounds were characterized in LNCaP or 22RV1 cells. LNCaP or 22RV1 cells that express CBP/P300 proteins were treated with GNE-781 or the bivalent compounds disclosed herein (P-001 to P-174) for indicated hours. Cells were collected, lysed and subject to immunoblotting using an antibody specific to P300 or CBP proteins. Tubulin or vinculin was included as the loading control. DMSO was used as the negative control.
# Cultured cells or tissue chunks were washed with cold PBS once and lysed in cold RIPA buffer supplemented with protease inhibitors and phosphatase inhibitors (Beyotime Biotechnology). The solutions were then incubated at 4° C. for 30 minutes with gentle agitation to fully lyse cells. Cell lysates were centrifuged at 13,000 rpm for 10 minutes at 4° C. and pellets were discarded. Total protein concentrations in the lysates were determined by BCA assays (Beyotime Biotechnology). Cell lysates were mixed with Laemmli loading buffer to 1× and heated at 99° C. for 5 min. Proteins were resolved on SDS-PAGE and visualized by chemiluminescence. Images were taken by a ChemiDoc MP Imaging system (Bio-Rad). Protein bands were quantitated using the accompanied software provided by Bio-Rad.
# HL-60 = assay: Cell viability assay, HL-60; format: cell-based; conditions: Homo sapiens, HL-60, Acute myeloid leukemia
# Procedure: as §1, §2
# [1] = 72 h, LNCaP prostate cancer cell viability inhibition, 3 days, CellTiter-Glo (Table 2)
# [2] = cell viability, LNCaP clone FGC, Prostate carcinoma (Table 4)
SMILES,IC50 (NOMO-1),IC50 (SU-DHL-1),IC50 (LNCaP cells; [1]),IC50 (LNCaP cells; [2]),IC50 (22Rv1),CBP protein levels in 22RV1 xenograft tumors (CBP),IC50 (Kasumi-1),IC50 (NCI-H1703),IC50 (MV4; 11),IC50 (VCaP),"degradation of P300/CBP in combination with pomalidomide, MG-132, Bortezomib or MLN4924 (P300/CBP)",IC50 (HL-60)
"CNC(=O)N1CCc2c(c(N3CCCc4cc(-c5cnn(C)c5)c(C(F)F)cc43)nn2C2CCN(C(=O)CCCCCNc3cccc4c3C(=O)N(C3CCC(=O)NC3=O)C4=O)CC2)C1 (stereo not shown) [P-034, 3-(7-(difluoromethyl)-6-(1-methyl-1H-pyrazol-4-yl)-3,4-dihydroquinolin-1(2H)-yl)-1-(1-(6-((2-(2,6-dioxopiperidin-3-yl)-1,3-dioxoisoindolin-4-yl)amino)hexanoyl)piperidin-4-yl)-N-methyl-1,4,6,7-tetrahydro-5H-pyrazolo[4,3-c]pyridine-5-carboxamide]",0.8 nM,0.8 nM,0.4 nM,0.6 nM,8.2 nM,significantly reducing,1150 nM,2.9 nM,> 10000 nM,3.6 nM,compromised; also recorded: neutralized,2.9 nM
"CNC(=O)N1CCc2c(c(N3CCCc4cc(-c5cnn(C)c5)c(C(F)F)cc43)nn2C2CCN(C(=O)CCCCCCCNc3ccc4c(c3)C(=O)N(C3CCC(=O)NC3=O)C4=O)CC2)C1 (stereo not shown) [P-007, 3-(7-(difluoromethyl)-6-(1-methyl-1H-pyrazol-4-yl)-3,4-dihydroquinolin-1(2H)-yl)-1-(1-(8-((2-(2,6-dioxopiperidin-3-yl)-1,3-dioxoisoindolin-5-yl)amino)octanoyl)piperidin-4-yl)-N-methyl-1,4,6,7-tetrahydro-5H-pyrazolo[4,3-c]pyridine-5-carboxamide]",,3.4 nM,1.2 nM,1.3 nM,3.2 nM,significantly reducing,87.8 nM,,8.9 nM,2.1 nM,compromised; also recorded: neutralized,17 nM
